From doi:10.1101/2024.07.26.605352v1, “In-vitro Metabolite Identification for MEDI7219, an Oral GLP-1 Peptide, using LC-MS/MS with CID and EAD Fragmentation” (bioRxiv, 2024)
One block for each substance: values may come before it.

Legend:
[1] = tested on: Pancreatin from porcine pancreas; test: In vitro incubation of MEDI7219 with pancreatin in PBS, LC-MS/MS metabolite identification and relative quantification; format: in vitro ADME; settings: for Time at which fractional abundance peaked: pancreatin 3 mg/ml in PBS, 37 °C, sampling 0.5-6 h
Procedure: MEDI7219 solution (10 µg/ml) was incubated with pancreatin (3 mg/ml) in pre-warmed PBS buffer at 37 °C for 0.5 h, 1 h, 2 h, 4 h and 6 h. A negative control sample was prepared as pancreatin in PBS buffer without MEDI7219 spiked in. A time zero sample was prepared as MEDI7219 in PBS without pancreatin. At each time point, 100 µl was sampled and quenched with 200 µl of acetonitrile. The quenched solution was centrifuged at 6000 g for 10 min. Supernatant was diluted 5-fold in mobile phase A (0.1 % formic acid in water) and 40 µl was injected to LC-MS/MS. Same LC-MS system was used here as structural characterization experiment. A longer LC gradient was applied where 20 % B was increased to 60 % B within 8 min.
For MS method, DDA (data dependent acquisition) experiment was used where ions in range of 800-1250 Da were selected for MS/MS. Same key settings for CID and EAD established in the structural characterization experiment described above were applied in MS method here.
Data were analyzed using Molecule Profiler beta version 1.3.2 (MP, SCIEX) beta version. Raw data from incubation at each time point was analyzed against the pancreatin blank sample in the MP software. […] Amino acid sequence for MEDI7219 was entered as a processing parameter. Non-natural amino acids including α-methyl-L-alanine, α-methyl-L-phenylalanine, α-methyl-L-serine, α-methyl-L-lysine, as well as side-chain lipid on lysine (C35H63N5O11) were added as custom elements by providing molecular formula in the software. Peptide method was used to match all peptide fragment peaks with full lipid side chain. Both MS1 and MS2 were used for peak finding based on mass tolerance of 15 ppm. For MS parameters, charge states 2-5 were included in the search. For MS/MS parameters, theoretical b, y, c’, z· as well as y|a and y|b internal fragment ions were searched with mass tolerance of 15 ppm. Default Biologics biotransformation set was used in the processing method. For quantification, all isotope peaks as part of a cluster and multiple charge states of the same peptide were summed for peak area. Results from individual timepoints were consolidated in Correlation analysis with 0.1 min retention time (RT) tolerance and 15 ppm m/z tolerance to yield the final list of metabolites and peak areas from all samples.
Pancreatin was chosen for the in vitro evaluation because the site of maximal gastrointestinal absorption for MEDI7219 oral peptide was small intestine and proximal colon ([Pechenov et al., 2021]). […]
For relative quantification, after correlation analysis in MP software and exporting XIC peak areas, we calculated fractional abundance of each metabolite over the incubation period (Figure 4). […]

[2] = tested on: pancreatin; settings: result in words; ref Pechenov et al., 2021; cited from earlier work
Description: Systematic multi-disciplinary approach to engineering led to rational selection of the clinical lead, MEDI7219, a GLP-1 peptide with bis-lipidation and 12 amino acid substitutions and 5 α- methyl modifications ([Pechenov et al., 2021]). […] This measurement was done using HPLC with MEDI7219 detection by UV absorption at 210 nm. In this study, we identified key metabolites from MEDI7219 ... || For relative quantification, after correlation analysis in MP software and exporting XIC peak areas, we calculated fractional abundance of each metabolite over the incubation period (Figure 4). This was taken as a percent of XIC peak area of each metabolite over total peak area of all metabolites at a given timepoint (Table S2). Parent peptide decreased quickly in this experiment compared to the 60 % remained intact after 2 h in previous publication ([Pechenov et al., 2021]). The enzyme to substrate ratio was higher in this study compared to Pechenov et al. as the assay condition was optimized ...

[3] = result in words; ref Pechenov et al., 2021; cited from earlier work
Description: Semaglutide was the first approved oral GLP-1 receptor agonist ([Mahapatra et al., 2022]) and it incorporated peptide engineering approaches such as unnatural amino acid substitution to protect proteolytic sites, and lipidation to promote plasma protein binding to reduce renal clearance.

Time at which fractional abundance peaked [1]: 0.5 h
Substance: HαAEGSαFTSDVαSSsidechainK [Metabolite M13, metabolite of MEDI7219 identified after incubation with pancreatin]

Number of distinct cleavage sites ([1]; the 13 metabolites mapped on the MEDI7219 structure): 8
Substance: HαAEGSαFTSDVαSSsidechainKLEGEAAαKEαFIAsidechainK VVEGG [MEDI7219, orally-bioavailable GLP-1 peptide with bis-lipidation, 12 amino acid substitutions and 5 α-methyl modifications; clinical candidate]
Proteolytic stability compared with wild type or semaglutide [2]: proteolytically more stable than the wild type or semaglutide | Parent peptide in metabolite chromatograms over pancreatin incubation ([1]; summed XIC chromatograms, 0-6 h, CID data, result in words): still present at 0.5 h although no longer the prominent species, and it decreased significantly after 2 h

Time at which fractional abundance peaked [1]: 0.5 h
Substance: HαAEGSαFTSDVαSSsidechainKLEGEAAαKEαFIAsidechainK [Metabolite M2, metabolite of MEDI7219 identified after incubation with pancreatin]

Substance: semaglutide
Degradation in GI tract [3]: rapidly degraded in GI tract
